Values after ≈ are worked out from the molar mass of the structure shown. Counter-ions that a name gives are not always drawn. Like-named read-outs stand apart in the source and are kept apart here.

Holding throughout (type): cell-based
For one test, the system named is Candida albicans GDH2346. The test is described as follows: Candida Minimal Inhibitory Concentration (MIC). As to conditions: Candida albicans, GDH2346; 50% growth inhibition at 48 hours; read-out: MIC-50 Candida albicans GDH2346. On the procedure: Candida Minimal Inhibitory Concentration (MIC): RPMI/MOPS media is prepared by dissolving 8.4 g RPMI 1640, 34.52 g MOPS buffer and 2 g glucose in 900 mL water. The pH is adjusted to 7.0 with NaOH. The total volume is brought to 1 L and the resulting solution is filter sterilized. The Candida stock is streaked on a Yeast extract Peptone Dextrose (YPD) agar plate and grown at 35° C. for isolation of single colonies. Compounds of the disclosure are diluted to 200 μg/mL in RPMI/MOPS (4.8 ul of 10 mg/mL DMSO stock in 240 ul media). Ten (10) 1:2 serial dilutions are prepared in RPMI/MOPS in a 96-well round bottom plate. Fifty (50) μl of compound dilutions are transferred in duplicate to a sterile tissue culture-treated 96-well flat-bottom, black-sided polypropylene plate. A single colony of Candida from the YPD plate is re-suspended in 5 mL phosphate buffered saline (BS) and optical density (OD) at 600 nm is measured. The suspension is adjusted to OD=1.0 and a 1:1000 dilution is prepared in RPMI/MOPS. Fifty (50) ul aliquots of the diluted yeast are added to the plates containing 50 μL of compound to all wells except 12E-H. Control wells include: 12 A-D cells, no compound and 12 E-H no cells, no compound. The plates are mixed gently by hand and placed in Ziplok bags in a 35° C. incubator. The OD600 is measured at 24 and 48 hours.

The subject of test [1] is Aspergillus flavus AFL1 (ATCC MYA-3631). The test is described as follows: Fungal MIC Protocol, Aspergillus flavus. As to conditions: Aspergillus flavus, read-out: MIC Aspergillus flavus 3631. As for the experimental part:
(§1) Fungal MIC Protocol: RPMI/MOPS media (Roswell Park Memorial Institute/3-morpholinopropane-1-sulfonic acid media) is prepared by dissolving 8.4 grams RPMI […] (Sigma cat #R1383), 34.52 grams MOPS buffer (Sigma cat #M3.183) and 2 […] glucose in 900 mL deionized water. The pH is adjusted to 7.0 with NaOH and filter sterilized. 0.1 mL, of a stock spore suspension (or loop from frozen stock) is inoculated to a 75 mL tissue culture flask (Falcon cat #353136) containing 50 mL of Potato Dextrose Agar (PDA, 24 grams PD broth (Fisher cat #DF 0549179), 20 grams agar (Fisher cat #BP 1423500) per liter water). Aspergillus and Fusarium strains are grown at 35° C. and Mucor strains are grown at room temperature for 3-5 days. Spores are harvested by flooding the flask with 5 mL phosphate buffered saline (PBS) pH 7.4+0.1% Tween-20 and several glass beads (Fisher cat #S800243) are added to aid in agitation. The supernatant is removed and the OD530 of a 1:100 dilution is measured. Spores are diluted in RPMI/MOPS to a final OD530 of 0.002 for Aspergillus and an OD530 of 0.005 for Fusarium and Mucor. The final concentration of spores is approximately 2×10^4 cfu/mL. Test compound(s) are diluted to 200 ug/mL in RPMI/MOPS ([…]). Ten (10) serial dilutions are prepared with RPMI/MOPS in a 96-well round bottom plate (Fisher cat #353136). For Mucor strains a sterile flat-bottom 96-well plate is used. 50 μl of compound dilutions in duplicate are added to a sterile 96-well round bottom plate. 50 ul of diluted spores are added to the compound-containing plates. Control wells include 1) compound but no cells and 2) spores but no compound. Mix the plates gently by hand, place in ziplock bags and
(§2) incubate at 35° C. for 48 hours. […]

Test [2] has as its system Aspergillus fumigatus T33439 (ATCC MYA-3626). As to the kind of experiment: Fungal MIC Protocol, Aspergillus fumigatus. As to conditions: Aspergillus fumigatus, read-out: MIC Aspergillus fumigatus 3626. As for the experimental part:
as §1, §2

For test [3], the system named is Fusarium falciforme FS1 (ATCC MYA-3636). As to the kind of experiment: Fungal MIC Protocol, Fusarium falciforme. As to conditions: Fusarium falciforme, read-out: MIC Fusarium falciforme 3636. As for the experimental part: as §1, §2
For test [4], the system named is Mucor circinelloides 1463(62) (ATCC 26759). The test is described as follows: Fungal MIC Protocol, Mucor circinelloides (MIC-50). The conditions noted are these: Mucor circinelloides, read-out: MIC-50 Mucorales circinelloides 26579. As for the experimental part: as §1
(§3) incubate at 35° C. for 48 hours. Score the MIC visually (lowest concentration of compound showing >50% growth inhibition) using an inverted mirror.

Test [5] has as its system Mucor ramosissimus 057718 (ATCC 90286). As to the kind of experiment: Fungal MIC Protocol, Mucor ramosissimus (MIC-50). As to conditions: Mucor ramosissimus, read-out: MIC-50 Mucorales ramosissimus 90286. As for the experimental part: as §1, §3
For test [6], the system named is Fusarium solani (ATCC 58877). The test is described as follows: Fungal MIC Protocol, Fusarium solani. As to conditions: Fusarium solani, read-out: MIC Fusarium solani 58877. On the procedure:
as §1, §2

[7] abbreviates: 100% growth inhibition at 48 hours.

Take `Cn1nc(-c2ccc(N3CCN(C(=N)N)CC3)cc2)cc1-c1ccc(N2CCN(C(=N)N)CC2)cc1` [Example 55, 4,4′-(4,4′-(1-Methyl-1H-pyrazole-3,5-diyl)bis(4,1-phenylene)) dipiperazine-1-carboximidamide]: the MIC50 with Candida albicans GDH2346 is 1.56 µg/mL (≈ 3.21 µM). In addition, the minimal inhibitory concentration (MIC) was found to be 3.13 µg/mL (≈ 6.43 µM) in test [1] (setting [7]) and 0.78 µg/mL (≈ 1.6 µM) in test [2] (setting [7]).

With `Cc1cc(C2=CCN(C(=N)N)CC2)cc(C)c1-c1nnc(-c2ccc(C3=CCN(C(=N)N)CC3)cc2)o1` [Example 45, 4-(4-(5-(4-(1-Carbamimidoyl-1,2,3,6-tetrahydropyridin-4-yl)-2,6-dimethylphenyl)-1,3,4-oxadiazol-2-yl)phenyl)-5,6-dihydropyridine-1(2H)-carboximidamide], the MIC50 in the test on Candida albicans GDH2346 turned out to be 0.39 µg/mL (≈ 0.785 µM). For the same compound, the MIC in test [1] (setting [7]) and in test [2] (setting [7]) was 0.39 µg/mL (≈ 0.785 µM) in each case.

Take `Cc1cc(C2CCN(C(=N)N)CC2)ccc1-c1nnc(-c2ccc(C3CCN(C(=N)N)CC3)cc2)o1` [Example 53, 4-(4-(5-(4-(1-Carbamimidoylpiperidin-4-yl)-2-methylphenyl)-1,3,4-oxadiazol-2-yl)phenyl)piperidine-1-carboximidamide]: the MIC50 in the test on Candida albicans GDH2346 is 1.56 µg/mL (≈ 3.21 µM). For the same compound, the MIC in test [1] (setting [7]) was found to be 6.25 µg/mL (≈ 12.8 µM); in test [2] (setting [7]), 25 µg/mL (≈ 51.4 µM).

In the case of `Cc1cc(-c2nnc(-c3ccc(N4CCN(C(=N)N)CC4)cc3)o2)ccc1N1CCN(C(=N)N)CC1` [Example 60, 4-(4-{5-[4-(4-Carbamimidoylpiperazin-1-yl)-3-methylphenyl]-1,3,4-oxadiazol-2-yl}phenyl)piperazine-1-carboximidamide], in the test on Candida albicans GDH2346, the MIC50 amounted to 1.56 µg/mL (≈ 3.19 µM). Further, the minimum inhibitory concentration (MIC) in test [1] (setting [7]) and in test [2] (setting [7]) was 25 µg/mL (≈ 51.2 µM) throughout.

With `N=C(N)N1CCC(c2ccc(-c3nnc(-c4ccc(C5CCN(C(=N)N)CC5)cc4)o3)cc2)CC1` [Example 52, 4,4′-(4,4′-(1,3,4-Oxadiazole-2,5-diyl)bis(4,1-phenylene)) dipiperidine-1-carboximidamide], the MIC50 in the test with Candida albicans GDH2346 was 4.3 µg/mL (≈ 9.1 µM). Moreover, the MIC in test [1] (setting [7]) is 6.25 µg/mL (≈ 13.2 µM); in test [2] (setting [7]), 50 µg/mL (≈ 106 µM).

As to `Cc1cc(N2CCN(C(=N)N)CC2)ccc1-c1nnc(-c2ccc(N3CCN(C(=N)N)CC3)cc2)o1` [Example 61, 4-(4-{5-[4-(4-Carbamimidoylpiperazin-1-yl)-2-methylphenyl]-1,3,4-oxadiazol-2-yl}phenyl)piperazine-1-carboximidamide], in the test on Candida albicans GDH2346, the MIC50 was 1.56 µg/mL (≈ 3.19 µM). Besides, the results for the MIC in test [1] (setting [7]) and in test [2] (setting [7]) were 3.13 µg/mL (≈ 6.41 µM) and 0.78 µg/mL (≈ 1.6 µM), respectively.

As for `N=C(N)N1CCN(c2ccc(-c3nnc(-c4ccc(N5CCN(C(=N)N)CC5)cc4)o3)cc2)CC1` [Example 51, 4,4′-(4,4′-(1,3,4-Oxadiazole-2,5-diyl)bis(4,1-phenylene)) dipiperazine-1-carboximidamide], the MIC50 in the test on Candida albicans GDH2346 came out at 3.13 µg/mL (≈ 6.6 µM). For the same compound, the results for the MIC in test [1] (setting [7]) and in test [2] (setting [7]) were 6.25 µg/mL (≈ 13.2 µM) and 0.78 µg/mL (≈ 1.64 µM), respectively.

`Cc1c(C2=CCN(C(=N)N)CC2)ccc(-c2nnc(-c3ccc(C4=CCN(C(=N)N)CC4)cc3)o2)c1C` [Example 44, 4-(4-(5-(4-(1-Carbamimidoyl-1,2,3,6-tetrahydropyridin-4-yl)-2,3-dimethylphenyl)-1,3,4-oxadiazol-2-yl)phenyl)-5,6-dihydropyridine-1(2H)-carboximidamide]: in the test with Candida albicans GDH2346, the MIC50 was 0.39 µg/mL (≈ 0.785 µM). The MIC worked out at 1.56 µg/mL (≈ 3.14 µM) in test [1] (setting [7]) and 6.25 µg/mL (≈ 12.6 µM) in test [2] (setting [7]).

In the case of `N=C(N)N1CC=C(c2ccc(-c3nnc(-c4ccc(C5=CCN(C(=N)N)CC5)cc4F)n3CCOCCO)c(F)c2)CC1` [Example 77, 4-(4-{5-[4-(1-carbamimidoyl-1,2,3,6-tetrahydropyridin-4-yl)-2-fluorophenyl]-4-[2-(2-hydroxyethoxy)ethyl]-4H-1,2,4-triazol-3-yl}-3-fluorophenyl)-1,2,3,6-tetrahydropyridine-1-carboximidamide trifluoroacetate], the minimum inhibitory concentration (MIC) in test [1] (48 h) was 0.78 µg/mL; in test [3] (48 h), 0.2 µg/mL; in test [2] (48 h) it was 0.2 µg/mL; in test [6] (ATCC58877, 48 h), 0.2 µg/mL. For the same compound, the MIC50 in test [4] (ATCC26759, 48 h) worked out at 6.25 µg/mL; in test [5] (ATCC90286, 48 h), 25 µg/mL.

As to `CN(C)CCn1c(-c2ccc(C3=CCN(C(=N)N)CC3)cc2F)nnc1-c1ccc(C2=CCN(C(=N)N)CC2)cc1F.Cl` [Example 72, 4-(4-{5-[4-(1-carbamimidoyl-1,2,3,6-tetrahydropyridin-4-yl)-2-fluorophenyl]-4-[2-(dimethylamino)ethyl]-4H-1,2,4-triazol-3-yl}-3-fluorophenyl)-1,2,3,6-tetrahydropyridine-1-carboximidamide hydrochloride], the minimal inhibitory concentration (MIC) in test [1] (setting [7]) stood at 0.78 µg/mL; in test [3] (setting [7]), 0.2 µg/mL; in test [2] (setting [7]), 0.39 µg/mL; in test [6] (ATCC58877, 100% growth inhibition at 48 hours), 0.1 µg/mL. Besides, the MIC50 is 6.25 µg/mL in test [4] (ATCC26759, 50% growth inhibition at 48 hours) and 12.5 µg/mL in test [5] (ATCC90286, 50% growth inhibition at 48 hours).

For `N=C(N)N1CC=C(c2ccc(-c3nnc(-c4ccc(C5=CCN(C(=N)N)CC5)cc4F)n3C(CO)CO)c(F)c2)CC1` [Example 71, 4-(4-{5-[4-(1-carbamimidoyl-1,2,3,6-tetrahydropyridin-4-yl)-2-fluorophenyl]-4-(1,3-dihydroxypropan-2-yl}-4H-1,2,4-triazol-3-yl)-3-fluorophenyl)-1,2,3,6-tetrahydropyridine-1-carboximidamide hydrochloride], the minimum inhibitory concentration (MIC) in test [1] (48 h) was found to be 3.13 µg/mL; in test [3] (48 h), 1.56 µg/mL; in test [2] (48 h), 1.56 µg/mL; in test [6] (ATCC58877, 48 h), 0.39 µg/mL. Also, the MIC50 worked out at 25 µg/mL in test [4] (ATCC26759, 48 h) and 25 µg/mL in test [5] (ATCC90286, 48 h).

Take `CC(CO)n1c(-c2ccc(C3=CCN(C(=N)N)CC3)cc2F)nnc1-c1ccc(C2=CCN(C(=N)N)CC2)cc1F` (stereo not drawn) [Example 83, 4-(4-{5-[4-(1-carbamimidoyl-1,2,3,6-tetrahydropyridin-4-yl)-2-fluorophenyl]-4-(1-hydroxypropan-2-yl)-4H-1,2,4-triazol-3-yl}-3-fluorophenyl)-1,2,3,6-tetrahydropyridine-1-carboximidamide hydrochloride]: the minimal inhibitory concentration (MIC) in test [1] (48 h) stood at 0.78 µg/mL; in test [3] (48 h), 0.2 µg/mL; in test [2] (48 h) it was 0.39 µg/mL; in test [6] (ATCC58877, 48 h), 0.2 µg/mL. For the same compound, the MIC50 in test [4] (ATCC26759, 48 h) amounted to 1.56 µg/mL; in test [5] (ATCC90286, 48 h), 12.5 µg/mL.

Usually MIC stands for the least concentration at which growth counts as inhibited.
